Bounds are passed on as bounds.

For the first test, the target named is T1, Corticotropin-releasing factor receptor 1 (Homo sapiens, UniProt P34998).
T1 sequence (P34998 whole entry): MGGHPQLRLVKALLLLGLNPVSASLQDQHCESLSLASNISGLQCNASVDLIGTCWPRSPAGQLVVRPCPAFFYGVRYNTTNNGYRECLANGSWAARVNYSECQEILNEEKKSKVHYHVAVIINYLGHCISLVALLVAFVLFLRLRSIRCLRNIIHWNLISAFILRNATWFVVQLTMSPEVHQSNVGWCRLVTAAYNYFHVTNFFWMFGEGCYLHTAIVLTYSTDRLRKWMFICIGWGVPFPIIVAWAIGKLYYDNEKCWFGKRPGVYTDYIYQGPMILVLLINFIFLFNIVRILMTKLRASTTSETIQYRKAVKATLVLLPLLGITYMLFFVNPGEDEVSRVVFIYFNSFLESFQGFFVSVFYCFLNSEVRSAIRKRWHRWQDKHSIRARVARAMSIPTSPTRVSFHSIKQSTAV
The test can be described thus: Binding affinity to cloned human CRF1 receptor expressed in CHO cells using [125I]o-CRF as radioligand at 10 uM concentration; In activie. Format: cell-based.
Conditions: not given; call rule not given here
`CCCN(CCC)c1nc(-c2ccc(Cl)cc2Cl)n(CCO)n1`: the Ki result was “Not Active”.

The target of a further test is T1, Corticotropin-releasing factor receptor 1. The test can be described thus: Tested for in vivo activity and binding affinity to human Corticotropin releasing factor receptor 1; In activie.
Conditions: not given
In the case of `CCCCN(CC)c1nc(C)nc2c1c(C)cn2-c1c(C)cc(C)cc1C` [CP-154526], the Ki result is on record as “Not Active”.

As to `CCCN(CC1CC1)c1nc(C)nc(Nc2c(Cl)cc(Cl)cc2Cl)c1Cl`, the Ki entry is “Not Active”.

For the next test the target is unchanged. The test can be described thus: Inhibition of [125I]o-CRF binding to human Corticotropin releasing factor receptor 1 expressed in CHO cells. In kind it is cell-based.
Conditions: not given
On to `CCCN(CCC)c1nc(-c2ccc(Cl)cc2Cl)n(C)n1`, for which the inhibition constant Ki was 2.6 µM.

The compound `CCCN(c1nc(-c2ccc(Cl)cc2C)n(C)n1)C(C1CC1)C1CC1` gave a Ki of 0.022 µM.

`CCCN(c1n[nH]c(-c2ccc(Cl)cc2Cl)n1)C(C1CC1)C1CC1` showed a Ki of 2.4 µM.

In turn, `CCCN(c1nc(-c2ccc(Cl)cc2Cl)n(CC)n1)C(C1CC1)C1CC1` registered a Ki of 0.08 µM.

For `CCCN(c1nc(-c2ccc(Cl)cc2Cl)n(C)n1)C(C1CC1)C1CC1`, the Ki worked out at 0.009 µM. Against the preceding compound, the Ki is about 8.9-fold lower.

For `C=CCn1nc(N(CCC)C(C2CC2)C2CC2)nc1-c1c(C)cc(C)cc1C`, the affinity, expressed as Ki, was 2.2 µM.

Take `CCCN(c1nc(-c2ccc(Cl)cc2Cl)nn1C)C(C1CC1)C1CC1`: the inhibition constant (Ki) was above 10 µM.

On to `CCCN(c1nc(-c2ccc(Cl)cc2OC)n(C)n1)C(C1CC1)C1CC1`, for which the Ki is 0.026 µM.

Turning to `CCCN(c1nc(-c2c(C)cc(C)cc2C)n(C)n1)C(C1CC1)C1CC1`, the Ki was 0.12 µM.

As to `CCCN(CCC)c1nc(-c2ccc(Cl)cc2Cl)n(CCO)n1`, the Ki is 0.014 µM. Against the preceding compound, the Ki is about 8.6-fold lower.

`CCCN(c1nc(-c2ccc(Cl)cc2)n(C)n1)C(C1CC1)C1CC1` showed a Ki of 0.033 µM. Compared with the last compound, the Ki is about 2.4-fold higher.

Regarding `CCCN(c1nc(-c2c(C)cc(C)cc2C)n(CC)n1)C(C1CC1)C1CC1`, the Ki was 0.31 µM. Against the preceding compound, the Ki is about 9.4-fold higher.

As for `CCCN(c1nc(-c2cc(F)c(Cl)cc2Cl)n(C)n1)C(C1CC1)C1CC1`, affinity was put at a Ki of 0.015 µM.

`CCCN(CC1CC1)c1nc(-c2ccc(Cl)cc2Cl)n(C)n1` yielded a Ki above 10 µM.

Consider `CCCN(c1nc(-c2ccc(Br)cc2C)n(C)n1)C(C1CC1)C1CC1`, for which the Ki is 0.01 µM.

Another test deals with T2, Corticotropin-releasing factor receptor 1 (Homo sapiens) (UniProt P34998).
T2 sequence (whole entry): T1 sequence (P34998 whole entry)
As to the kind of experiment: Binding affinity to cloned human Corticotropin releasing factor receptor 1 expressed in CHO cells using [125I]o-CRF as radioligand. In kind it is cell-based. Conditions: concentration not given here.
Compound `C=CCn1nc(N(CCC)C(C2CC2)C2CC2)nc1-c1ccc(Cl)cc1Cl` showed an inhibition of 77%.

The next test addresses T1, Corticotropin-releasing factor receptor 1. The test can be described thus: Binding affinity to cloned human Corticotropin releasing factor receptor 1 expressed in CHO cells using [125I]o-CRF as radioligand at 10 uM concentration; In activie.
Conditions: not given
Format: cell-based.
As for `CCCN(CC1CC1)c1n[nH]c(-c2cccc3cc(OC)ccc23)n1`, the Ki result is given as “Not Active”.

With `CCCN(CC1CC1)c1nc(-c2cccc3cc(OC)ccc23)n(C)n1`, the Ki result is “Not Active”.

As to `CCCN(CCC)c1n[nH]c(-c2ccc(Cl)cc2Cl)n1`, the Ki entry was “Not Active”.

Usually Ki stands for the dissociation constant of the complex between target and ligand, obtained from inhibition or displacement. High values mean lower affinity, low ones higher affinity. A word on the inhibition: it is the change of the read-out against control, counted positive when it falls. A low value points to a weak effect.

The record behind these values is ChEMBL document CHEMBL1134154, “1-Alkyl-3-amino-5-aryl-1H-[1,2,4]triazoles: novel synthesis via cyclization of N-acyl-S-methylisothioureas with alkylhydrazines and their potent corticotropin-releasing factor-1 (CRF(1)) receptor antagonist activities” (Bioorg Med Chem Lett, 2001).
